“Also recorded” adds a separate entry of the source.
What was measured:
Assay type in all cases: cell-based, Wistar rats
[1] = tested on: 5HT-R; test: FM endocytosis imaging (FEI) of 5-HT-induced endocytosis in DRG neuron
Text: (§1) Methods of the invention are based on FM endocytosis imaging (FEI). Confocal imaging can be used to measure the endocytosis induced by ligand-receptor binding (LRB). The principles of FM endocytosis imaging (FEI) method are: (i) an extracellular styryl FM dye (e.g., FM2-10) is taken up by the endocytic vesicles; and (ii) the FM molecule becomes 100 times brighter after uptake into vesicles. Thus, after proper stimulation, individual FM-loaded vesicles become visible images by standard confocal microscopy.
(§2) FIG. 2A illustrate a method of the invention. […] The ligand binds to the receptor and triggers receptor internalization (endocytosis). In the endocytosis process, the FM dye is internalized in endocytic vesicles. […]
(§3) The dye-containing vesicles in the cell may be imaged with a confocal fluorescence microscope, such as Zeiss LSM 510 (Germany). […]
(§4) The FM spots in each OS can be counted manually or automatically, e.g., with the aid of a software. […] Thus, the pixel sizes of the images may be properly adjusted so that FM spots corresponding to the vesicles are counted. One of ordinary skill in the art would appreciate that the images may be manipulated with techniques known in the art, e.g., smoothing, and the dynamic range (intensity range) may be adjusted so that majority (e.g., >90%) of the fluorescent spots are counted, with minimum interference from background noises. […]

[2] = tested on: DRG; test: Differential FEI labeling with FM2-10 and FM4-64 and KCl discharge; settings: for numbers of endocytic vesicles induced by the two ligands: sequential ADP and 5-HT incubation with two FM dyes in the same cell, FIG. 8D
Procedure: This capability, for example, may be used to probe the vesicle sorting or trafficking inside the cells. It is known that GPCRs are active cargos for the internalized vesicles, and each different type of GPCR vesicles may have its own sorting pathway. To investigate different sorting paths of vesicles internalized under different conditions (time, ligand, etc.), vesicles can be labeled with FM dyes of different colors in the same cell.
As shown in the left panel, the cells in a dish is incubated with ADP and FM2-10 (green fluorophore). Then, the dye and ADP are washed away and a second incubation is performed with 5-HT and FM4-64 (red fluorophone). The cells are again washed and monitored with a confocal microscope, as illustrated in the right panel. Both FM2-10 and FM4-64 can be excited with a light at 488 nm. The emission of FM2-10 can be monitored at 530-600 nm, while the emission of FM4-64 can be monitored at >635 nm.
To test whether there is a common sorting pathways for the ADP-induced and 5-HT-induced endocytic vesicles, the cell was treated with 80 mM KCL for three minutes.

[3] = tested on: P2Y; test: FM endocytosis imaging (FEI) of ADP-induced endocytosis in single DRG neuron
Text: as §1
FIG. 2A illustrate a method of the invention. […] The ligand binds to the receptor and triggers receptor internalization (endocytosis). In the endocytosis process, the FM dye is internalized in endocytic vesicles. Subsequently, the excess FM-dye may be washed away, leaving behind cells loaded with dye filled vesicles that are observable due to the fluorescent dye. Using this procedure, single vesicles in a single cell can be visualized by FM imaging. Note that while this example uses an FM dye, other suitable dyes may also be used without departing from the scope of the invention. […] Therefore, some methods of the invention may not include the washing step.
When a confocal microscope is used, the images may be takes in different optical slices (OSs) based on different focal depth. […] The data can be observed as the distribution of FM spots (individual vesicles) in each OS or as a global view, which is a projection overlaying the FM images from different OSs. An advantage of viewing the individual OS is the ability to track the location of the endocytic vesicles within the cell. This would permit studies of vesicle trafficking inside the cells. The advantage of the global view is the total number of vesicles are observed and, therefore, it provides a maximum sensitivity for assay use. For example, the global view may be used to monitor LRB events as a function of time—e.g., in real-time monitoring. […]
as §3

[4] = tested on: DRG neuron; test: Time-resolved FEI recording (FIF recording)
Text: Methods of the invention, as noted above, can provide images of endocytic vesicles with relative ease. Thus, these methods for detecting LRB-induced endocytosis can be used in real time to monitor the endocytosis processes. […] In real-time applications, the FEI methods described above may be modified as follows to provide better FIF results: (i) the spatial resolution can be reduced, i.e., OS thickness increased, to increase detection sensitivity; (ii) the confocal scan can be made at a fixed z-position (normally near the middle of the cell); and (iii) cell images can be obtained in the presence of extracellular FM dye (i.e., no need to wash away the dye outside the cells). Under these conditions, FIF recording can rapidly acquire many x-y images of the cell after ligand binding in order to monitor the LRB induced events in real time.
FIG. 7A illustrates a setup for performing a real-time recording of LRB-induced events. As illustrated, the cell is bathed in an ES solution containing a fluorescent dye (e.g., FM2-10), and the OS is selected to a thickness of about […] to have a better sensitivity. […] This is to provide background readings before the ligand is added. From image frame K+1 to image frame m (i.e., from tk+1 to tm), the cell is incubated with the ligand (ADP) in the ES solution. […]
The fluorescence intensity is proportional to the total number of endocytic vesicles. […]

[5] = tested on: DRG cells; test: Multi-well (2×2) FEI protocol; settings: 3 minutes, FIG. 9C
Procedure: FIGS. 9A-9B illustrate a method of the invention that could be used for high throughput evaluation of LRB-induced endocytosis in a multi-well (here 2×2) format. The multi-well plate is the same as a standard cell culture plate, except that a 0.17 mm-thick glass cover-slip constitutes part of the bottom in each well. In this example, single DRG cells were plated on the cover-slips in the wells.
Well (1,1) is incubated with ES and FM, without any ligand. Well (1,2) is incubated with 80 mM KCl and FM. Well (2,1) is incubated with 0.1 mM ADP and FM. Well (2,2) is incubated with ADP, Suramin, and FM. The incubations are all performed for 3 minutes.
Each well was scanned in sequence to obtain the images shown in FIG. 9B, and the endocytic signal (FM spots/cell) were analyzed and presented in histograms (FIG. 9C). […] Within each column, the top image is a transmission microscopy image, showing the cells in the well. The cell bracketed by the square in each well is chosen for image analysis.
The selected cells are scanned for FM images of single OSs (middle image) as well as the global image (bottom image) in each cell (FIG. 9B).

[6] = biological target: T1, δ-opioid-DOR (Rattus norvegicus, UniProt P33533)
T1 construct: endogenous in cells; host or cells: freshly dissociated small DRG neurons of Wistar rats
T1 sequence (P33533 whole entry): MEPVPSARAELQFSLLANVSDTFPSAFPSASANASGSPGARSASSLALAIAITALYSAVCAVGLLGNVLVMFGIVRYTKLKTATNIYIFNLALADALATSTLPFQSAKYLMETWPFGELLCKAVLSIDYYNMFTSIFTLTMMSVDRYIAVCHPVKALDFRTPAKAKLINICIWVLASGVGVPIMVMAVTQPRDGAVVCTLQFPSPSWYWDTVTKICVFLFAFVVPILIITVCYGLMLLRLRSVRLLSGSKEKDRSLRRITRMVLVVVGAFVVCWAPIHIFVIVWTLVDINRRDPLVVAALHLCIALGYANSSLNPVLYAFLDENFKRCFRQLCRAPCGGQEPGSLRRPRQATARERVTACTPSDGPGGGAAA

[7] = biological target: T2, receptor of the tyrosine kinase (RTK) family (Rattus norvegicus, UniProt P35739); test: FM endocytosis imaging (FEI) of NGF-induced endocytosis in DRG neuron; settings: NGF 50 ng/ml
T2 construct: endogenous in cells; host or cells: freshly dissociated small DRG neurons of Wistar rats
T2 sequence (P35739 33-799): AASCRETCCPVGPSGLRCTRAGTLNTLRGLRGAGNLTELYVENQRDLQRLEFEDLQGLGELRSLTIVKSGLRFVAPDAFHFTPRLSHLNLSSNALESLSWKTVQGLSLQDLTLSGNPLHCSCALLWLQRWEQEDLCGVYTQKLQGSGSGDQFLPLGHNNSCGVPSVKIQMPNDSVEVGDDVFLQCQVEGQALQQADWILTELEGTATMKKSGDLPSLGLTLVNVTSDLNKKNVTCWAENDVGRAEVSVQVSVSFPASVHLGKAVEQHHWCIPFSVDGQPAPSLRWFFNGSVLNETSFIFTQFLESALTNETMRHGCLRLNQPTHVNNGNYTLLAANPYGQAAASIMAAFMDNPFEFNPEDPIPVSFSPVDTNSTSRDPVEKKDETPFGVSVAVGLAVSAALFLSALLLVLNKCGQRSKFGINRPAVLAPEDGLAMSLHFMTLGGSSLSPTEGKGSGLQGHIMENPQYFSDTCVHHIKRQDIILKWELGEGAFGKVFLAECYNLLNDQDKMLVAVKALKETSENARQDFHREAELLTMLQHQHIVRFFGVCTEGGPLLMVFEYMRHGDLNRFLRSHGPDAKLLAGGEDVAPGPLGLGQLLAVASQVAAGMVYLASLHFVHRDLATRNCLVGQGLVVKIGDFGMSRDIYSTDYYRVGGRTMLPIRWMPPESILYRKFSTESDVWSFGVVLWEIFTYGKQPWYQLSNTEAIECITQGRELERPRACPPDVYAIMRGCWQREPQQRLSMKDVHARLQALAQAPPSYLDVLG
Text: as §1, §2, §3, §4

NCCc1c[nH]c2ccc(O)cc12 [5-HT, 5-hydroxytryptamine]
endocytic vesicles (FM spots) ([1]; 5-HT 0.1 mM vs control incubated with ES 3 minutes): substantial increases | number of FM spots relative to those induced by AR, GABAB, and mAChR ([1]; ligands separately introduced, FIG. 6B): 2-3 times | numbers of endocytic vesicles induced by the two ligands [2]: similar

Nc1ncnc2c1ncn2[C@@H]1O[C@H](COP(=O)(O)OP(=O)(O)O)[C@@H](O)[C@H]1O [ADP]
distribution of endocytic vesicles, medulla compared with periphery ([3]; ADP-induced vesicles in DRG neuron, histogram FIG. 3C): Almost twice as many | number of FM spots relative to those induced by AR, GABAB, and mAChR ([3]; DRG neuron, ligands separately introduced, FIG. 6B): 2-3 times | number of FM spots (endocytic vesicles) ([3]; FM+ADP 3 min vs FM+ES control 3 min, single DRG neuron, FIG. 3A/3B): increased dramatically; also recorded: dramatic increase | number of fluorescent spots (endocytic vesicles) in the cell ([4]; image at t=tm (ADP) vs t=tk (control), DRG neuron): substantial increase | fluorescence intensity (number of endocytic vesicles) inside the cell ([4]; time course, average of 21 experiments, extracellular FM dye present): significantly increases | numbers of endocytic vesicles induced by the two ligands [2]: similar | endocytosis (FM spots/cell) ([5]; 0.1 mM ADP and FM): induced significant endocytosis

[Cl-].[K+] [KCl]
green/5HT-R vesicles discharged ([2]; 80 mM KCL for three minutes, 5-HT-induced vesicles, FIG. 8E): about 37% | red/P2Y vesicles discharged ([2]; 80 mM KCL for three minutes, ADP-induced vesicles, FIG. 8E): about 43% | vesicles lost after the KCl treatment ([2]; 80 mM KCL for three minutes, FIG. 8C): significant amount of vesicles were lost

CC(C)[C@H](NC(=O)[C@H](CCC(=O)O)NC(=O)[C@H](Cc1ccccc1)NC(=O)[C@@H](C)NC(=O)[C@@H](N)Cc1ccc(O)cc1)C(=O)N[C@H](C(=O)NCC(=O)O)C(C)C [deltorphin]
number of FM spots relative to those induced by AR, GABAB, and mAChR [6]: 2-3 times

Cc1ccc(C(=O)Nc2ccc(S(=O)(=O)O)c3cc(S(=O)(=O)O)cc(S(=O)(=O)O)c23)cc1NC(=O)c1cccc(NC(=O)Nc2cccc(C(=O)Nc3cc(C(=O)Nc4ccc(S(=O)(=O)O)c5cc(S(=O)(=O)O)cc(S(=O)(=O)O)c45)ccc3C)c2)c1 [suramin]
inhibition of ADP-induced endocytosis (FM spots/cell) ([5]; ADP, Suramin, and FM): inhibited

nerve growth factor [NGF]
endocytic vesicles (FM spots) [7]: substantial increase
